Row | melting point | SMILES
1 | 282 to 287 °C | O=[N+]([O-])c1ccc2c(c1)S(=O)(=O)c1cc([N+](=O)[O-])ccc1-2
2 | 160 to 161 °C | CCOC(=O)CCc1sc(N)nc1-c1ccc(Cl)cc1
3 | 84 to 86 °C | CN(CCCCNC(=NCCCOc1cccc(CN2CCCCC2)c1)NC#N)CCN(Cc1ccc(F)cc1)c1ccccn1
4 | 95 to 97 °C | CC(C)NCC(O)COc1ccc2c(c1)C(=O)OC2 (centres undefined)
5 | 113 to 115 °C | CCCCCCCCCCCCn1nnnc1C(C(=O)Nc1c(C(C)C)cccc1C(C)C)c1ccccc1 (centres undefined)
6 | 144 to 146 °C | COc1ccc(N2CCN(c3c(C)c(C)c4c(c3C)C(O)(c3ccc(N(C)C)cc3)C(C)(C)O4)CC2)cc1 (centres undefined)
7 | 134 to 136 °C | CC(=O)Nc1ccc(F)cc1OCCOc1ccc(N)cc1F
8 | 263 °C | NS(=O)(=O)c1cnc(-c2cn(-c3cc(-c4ccc(Cl)cc4)cc(C(F)(F)F)n3)cn2)s1
9 | 47 °C | O=C(CBr)Cc1c(F)cccc1Cl
10 | 181 to 182 °C | O=C(Nc1cc(Cl)cc(Cl)c1)c1cc(Br)cc(Br)c1O
11 | > 300 °C | COc1ccc(CC2NCCCC2C(C)O)cc1 (centres undefined)
12 | 46.5 to 47.5 °C | O=C1C2CCCN2S(=O)(=O)N1CCl (centres undefined)
13 | 96 to 97 °C | CC12CCC(C(=O)N(CCCCN3CCN(c4ccccn4)CC3)C1=O)C2(C)C (centres undefined)
14 | > 220 °C | C(=Cc1ccc2c(n1)[nH]c1ccccc12)c1ccccc1
15 | 123 to 124 °C | CCCCc1nc2cccc(C(=O)OC)c2n1Cc1ccc(-c2ccccc2C#N)cc1
16 | 62 to 63 °C | COC(=O)c1cc(Cl)cc(C(F)(F)F)n1
17 | 190 °C | Oc1ccc2c(c1)OC=C(CN1CCN(C(c3ccc(F)cc3)c3ccc(F)cc3)CC1)O2
18 | 214 °C | O=C(Nc1nc(C(Cl)(Cl)Cl)ns1)c1ccc([N+](=O)[O-])cc1
19 | 171 to 175 °C | CC(C)(C)OC(=O)C1CCN(C(=O)C2CN(c3ccc(-c4noc(=O)[nH]4)cc3)C(=O)O2)CC1 (centres undefined)
20 | 101 to 102 °C | CCOC(=O)c1cnc2sc3c(n12)CCC3
21 | 145 to 147 °C | CC(C)(C)[Si](C)(C)Oc1ccc2c(c1)CCc1c-2c(=O)oc2cc(O[Si](C)(C)C(C)(C)C)ccc12

Row | melting point | SMILES
22 | 281 to 282 °C | O=C1CN(N=Cc2ncc(-c3ccc(F)cc3)o2)C(=O)N1
23 | 74 to 76 °C | CC(=O)c1nc(-c2ccccc2)oc1C
24 | 308 to 310 °C | O=c1[nH]c2ncc(-c3ccc(O)cc3)nc2n1CCO
25 | 215 to 219 °C | CCOC(=O)c1c(Cl)nc2ccc(OC)cc2c1CCl
26 | 138 °C | CN(C)C=CC(=O)c1ccc(OCc2ccccc2)cc1
27 | 102 °C | O=C(OCc1ccccc1)N1CCC(O)(c2ccc(C(F)(F)F)cc2)CC1
28 | 245 to 247 °C | c1ccc2c(c1)ccc1nn[nH]c12
29 | 273 to 278 °C | Cc1ccc(N2C(=O)C(O)=C(C(=O)c3ccc(C(C)C)cc3)C2c2ccc(F)cc2)nn1 (centres undefined)
30 | 158 to 159 °C | COC(=O)C(O)=CC(=O)c1cn(Cc2ccccc2)c(=O)n(Cc2ccccc2)c1=O
31 | 130 to 132 °C | Cc1c(NC(=O)CC(C)(C)C)cc2c(c1C)OC(C)(C)C2Cc1ccc(C(C)C)cc1 (centres undefined)
32 | 109 to 112 °C | CC(C)c1nc(C(=O)NC2CC2)c(C(=O)O)o1
33 | 51 to 52 °C | CCNCCNC(=O)c1ccnc(F)c1
34 | 91 to 96 °C | O=S(=O)(Cl)c1nc2nc(OCC(F)(F)F)ccn2n1
35 | 138 to 140 °C | Cc1nn(CC(F)COCc2ccccc2)c(-c2ccc(F)cc2)c1-c1ccc2c(c1)NC(=O)CO2 (centres undefined)
36 | 192 to 193 °C | Nc1nc(SCc2ccc3ccccc3c2)nc(O)c1CCO
37 | 211 to 212 °C | CCNC(=O)c1sc(SC)c2c1CCc1sc(-c3ccccc3)nc1-2
38 | 145 to 146 °C | CNC(=Nc1cc(Cl)ccc1N1CCOCC1)NC
39 | 189 to 191 °C | Cc1cc([N+](=O)[O-])ccc1NC(=O)C1=C(O)N(C)S(=O)(=O)c2sccc21
40 | 114 to 116 °C | CCc1cc(N)c(N)cc1CC
41 | 188 to 190 °C | COc1cc(OC)nc(C2(O)OC(=O)c3c(Cl)cccc32)n1 (centres undefined)

Second part, the molecule before the results:

Row | SMILES | melting point
42 | O=C(NCc1ccc(Cl)cc1)c1cc(Br)c2cccnc2c1O | 148 to 151 °C
43 | O=C(N[C@H](Cc1ccc(C(F)(F)F)cc1)[C@@H](O)c1ccc(F)cc1)c1cccc(Cl)c1Cl (racemic) | 187 to 188 °C
44 | CCOC(OCC)c1ncn(CCC(O)(c2ccc(F)cc2F)n2cncn2)n1 (centres undefined) | 85 to 87 °C
45 | CCCSc1ncc(C(=O)N[C@@H](C)C(=O)O)n1Cc1ccccc1Cl | 173 to 176 °C
46 | Oc1ccc2c(c1)OCC1c3ccccc3OC21 (centres undefined) | 148 to 152 °C
47 | O=[N+]([O-])c1cccc(-c2nnc(Nc3cccc(SCCCc4ccccc4)c3)s2)c1 | 169 to 171 °C
48 | Cc1c(C)c2c(c(C)c1N)C(O)(c1ccc3ccccc3c1)C(C)(C)O2 (centres undefined) | 121 to 122 °C
49 | CCOC(=O)c1nc(N)sc1-c1ccccn1 | 186 to 187 °C
50 | COC(=O)C1=Cc2cc(Br)ccc2N(c2ccccc2)CC1 | 104 to 106 °C
51 | N#CN=CNC1c2ccccc2CC2CCCCC21 (centres undefined) | 145 to 165 °C
52 | C=CCNc1c(F)cc2c(=O)c(C(=O)O)cn(-c3nc(N)c(F)cc3F)c2c1Cl | 205 to 208 °C
53 | C#CC1(Oc2ccccc2[N+](=O)[O-])CCN(C(C)=O)CC1 | 112 to 115 °C
54 | O=c1oc2cc(O)c(O)c([N+](=O)[O-])c2c2c1CCCC2 | 238 to 255 °C
55 | O=C(CCC#Cc1ccccn1)Nc1ccc(F)cc1 | 190 °C
56 | CC(C)(C)OC(=O)N1CCCN(c2c(F)c(F)nc(F)c2F)CC1 | 55 to 59 °C
57 | O=C1CCC(c2ccccc2)(c2ccccc2)[C@@H]2CN(C(=O)Cc3cccs3)C[C@H]12 (racemic) | 206 °C
58 | CC(=O)SCCC(=O)N1[C@@H](c2ccccc2O)SC[C@H]1C(=O)N[C@@H](CC(C)C)C(=O)O | 78 to 84 °C
59 | CC(C)NS(=O)(=O)c1ccc(N)c(C(=O)N2CCN(C)CC2)c1 | 118 to 122 °C
60 | Cc1nnc(COc2ccc(OCC(C)Oc3ccccn3)cc2)s1 (centres undefined) | 72 to 78 °C
61 | O=c1cc(-c2ccc(O)c(F)c2)oc2ccccc12 | 275 to 276 °C

Row | SMILES | melting point
62 | CN(CCN(O)C(N)=O)Cc1cccc(Oc2cc(Cl)cc(Cl)c2)c1 | 111 to 113 °C
63 | Fc1ccc(CC2C=CC(OCc3ccccc3)=C3N=C4CCCCC4=C32)cc1 (centres undefined) | 134 to 135 °C
64 | CC(C)(C)Oc1ccc2c(c1)Oc1ccccc1S2(=O)=O | 108 to 110 °C
65 | COc1c(C2CCN(CCCCOc3ccc(-c4ccc(C#N)cc4)cc3)CC2)ccc2ccccc12 | 142 °C
66 | CCCCNc1nc2cccc(C(=O)OC)c2n1Cc1ccc(-c2ccccc2-c2nnn[nH]2)cc1 | 163 to 167 °C
67 | CCCc1c(OCCCOc2cccc3c2CCCC3)ccc2c1OC(CCC(=O)OC)(CCC(=O)N1CCCC1)CC2=O (centres undefined) | 106 to 107 °C
68 | CCC1c2cccn2-c2ccccc2N1S(=O)(=O)c1ccc(O)c(C)c1 (centres undefined) | 171 to 173 °C
69 | OC1CSC(Oc2cc(F)ccc2-c2ccncc2)C(O)C1O (centres undefined) | 209 °C
70 | Cc1cc(=O)[nH]c2cc(O)cc(O)c12 | > 300 °C
71 | COc1cc(C2C3=C(COC3=O)N(Cc3ccc([N+](=O)[O-])cc3)c3cc4c(cc32)OCO4)cc(OC)c1O (centres undefined) | 193 °C
72 | c1ccc(Oc2ccc(OCc3nc(C4CC4)no3)cc2)cc1 | 99 °C
73 | COC(=O)C(C)N(C(=O)CO)c1c(C)csc1C (centres undefined) | 69 to 70 °C
74 | O=C1C=C(O)CC(CCc2ccc(O)cc2)(C2CCCCC2)O1 (centres undefined) | 52 to 58 °C
75 | Cc1cccc2[nH]c(Nc3ccc(CC(=O)O)cc3)nc12 | 385 to 387 °C
76 | Cn1c(=O)cc(-c2nc(-c3ccccc3)cs2)c2cc(C(=O)c3ccc(Cl)cc3)ccc21 | 216 °C
77 | COC1CCC2(C)C(=CC(=O)C3C4CCC(=O)C4(C)CCC32)C1 (centres undefined) | 227 to 229 °C
78 | CC(C)(C)OC(=O)NCCCCCn1c(=O)c2cccc3ncc(c1=O)n32 | 82 to 83 °C
79 | CCOC(=O)[C@H](O)[C@@H](NC(=O)OC(C)(C)C)c1ccccc1 | 102 °C
80 | CCOC(=O)C1COc2cc(C=O)c(Cl)c(Cl)c2O1 (centres undefined) | 101 to 102 °C
81 | COC(=O)Oc1sc(-c2ccc(F)cc2)nc(=O)c1-c1c(C)cc(C)cc1C | 129 to 131 °C

Row | SMILES | melting point
82 | O=C(O)c1ccc(-c2ccccn2)cc1 | 232 to 234 °C
83 | N#Cc1c(N2CCN(C(=O)c3cccs3)CC2)c2cc(Cl)cnc2n(Cc2cccc(F)c2)c1=O | 204 °C
84 | Cc1cc(C)nc(NC(=O)NS(=O)(=O)c2ccccc2C(=O)O)n1 | 160 °C
85 | O=C(OCC(=O)c1ccc(C(F)(F)F)cc1)Oc1ccccc1 | 134 to 135 °C
86 | O=C1CCOc2c1ccc1c2OC(CN2CC=C(c3c[nH]c4ccccc34)CC2)CO1 (centres undefined) | 210 °C
87 | CC(C)OC1OC(=O)CC(C)(C)C1O (centres undefined) | 50 °C
88 | CC(C)c1cc(C(=O)Nc2ccc(OCC(=O)O)cc2)oc1C(C)C | 83 to 85 °C
89 | CCOC(=O)c1ccc(Br)cc1COC(C)=O | 51.5 to 52.5 °C
90 | CN(C(=O)CCCOc1ccc2nc3[nH]c(=O)n(C)c3cc2c1)C1CCCCCC1 | 234 to 236 °C
91 | Cc1c(N2CC[C@H](CNC3CC3)C2)c(F)cc2c(=O)c(C(=O)O)cn([C@@H]3C[C@@H]3F)c12 | 163 to 164 °C
92 | CNc1nc(Nc2cccc(OCCNC(=O)OC(C)(C)C)c2)ncc1[N+](=O)[O-] | 193 °C
93 | COc1ccc2c(c1)C(=O)C1=NCCCN12 | 152 °C
94 | Cc1cc2c(s1)C(C(=O)O)CC2=O (centres undefined) | 137 to 139 °C
95 | C=CCOC(=O)Nc1nsc(N)n1 | 159 to 161 °C
96 | CCOC(=O)C(=O)Nc1cc([N+](=O)[O-])c2ccccc2c1NC(=O)C(=O)OCC | 183 to 184 °C
97 | O=c1c2cccc3c2c(cn1C1CN2CCC1CC2)CC3 (racemic) | 146 to 147 °C
98 | Cc1ccc(S(=O)(=O)N[C@@H](C)C(=O)Oc2csc(-c3ccccc3)c2)cc1 | 85 to 87 °C
99 | O=C1c2cccc3cc4ccccc4c(c23)C(=O)N1CCCNCCCCNCCCN1C(=O)c2cccc3cc4ccccc4c(c23)C1=O | 183 °C

Reference: a melting point compilation (Tetko et al.; mined from patent text by program, amines drawn as free bases though some values may be those of a salt)
